From patent US11022604B2, “Dock derived compound against laminin receptor (37 LR) and uses thereof” (Purdue Research Foundation, priority 2017, dated 2021)

What was measured:
Type in all cases: cell-based
[1] = test system: LNCaP androgen dependent metastatic prostate cancer cells; experiment: Cell viability screen (CCK-8), LNCaP cells; details: Homo sapiens, CCK-8, 96 hours, read-out: IC50, inhibition of cell viability
Description: (§1) FIGS. 2A-2H. Dose response curves. Does response curves for cell lines treated with 6, 10.5, 18.6, 32.4, 57.5 and 100 μM of compound (log) for 96 hours using % cell viability derived from CCK-8 absorbance readings at 450 nm (n=3, mean±SEM). A DMSO equivalent control (n=2±SEM) was also included for each cell line tested: Ea.hy.926 endothelial cells (Endo), LNCaP androgen dependent metastatic prostate cancer cells, TC2-Ras mouse prostate cancer cells, PC-3 androgen independent metastatic prostate cancer cells, and SH-SY5Y neruoblastoma cells. […]
(§2) Cell Viability Screen. […] Cell viability was measured by using the cell counting kit-8 (CCK-8, Dojindo). […] CCK-8 absorbance was measured at 450 nm using a GloMax Multimode Reader (Promega). Readings were performed the day after seeding to normalize for variations in cell seeding and after 96 hours of compound treatment. After each reading, CCK-8 media was removed and replaced with media containing compound as described previously. […] As described previously, an initial baseline CCK-8 reading was performed at 24 hours post seeding to correct for variations in seeding density. First, 450 nm values for each well were subtracted from media only readings to correct for baseline absorbance. Then, the 96 hour readings were normalized to their respective 24 hour readings to control for seeding variation. […]

[2] = test system: SH-SY5Y neuroblastoma cells; experiment: Cell viability screen (CCK-8), SH-SY5Y cells; details: Homo sapiens, CCK-8, 96 hours, read-out: IC50, inhibition of cell viability
Description: as §1, §2

[3] = test system: PC3 prostate cancer cell line; experiment: Cell Titer Glo cell viability assay; details: Homo sapiens, PC-3, PC3 cells
From the text: In this series of cell viability experiments, we used the highly sensitive Cell Titer Glo reagents from Promega in PC3 prostate cancer cell line. We compared the parental compound C3 effect on reducing cell viability with the best derivative compound, DBG-02-09.

IC50 [1]: 10.3 µM | IC50 [2]: 18.6 µM | IC50 [3]: 16.7 ± 7.6 µM
SMILES: O=C(c1cc(F)cc2c1OCOC2)N1CCN(C2c3ccccc3-c3ccccc32)CC1 [Compound C3, [4-(9h-fluoren-9-yl)piperazino](6-fluoro-4h-1,3-benzodioxin-8-yl)methanone]
